Experimental data from patent publication US6376497B1, “Antifungal azole derivatives having a fluorinated vinyl group and process for preparing same” (Korea Research Institute of Chemical Technology, priority 1999, dated 2002).
≈ marks a conversion by molar mass, not a printed value.

Tests used:
Experiment in all cases: In vitro antifungal activity, microbroth dilution MIC
Assay type in all cases: cell-based
[1] = test system: Candida albicans A. 10231; conditions: 4 to 48 hours; for Minimal inhibitory concentration(MIC), C. albicans A. 10231: RPMI-1640, 35° C., no growth observed
Summary of the method: (§1)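 Broth microdilution adapted from NCCLS M27, in RPMI-1640 with 0.165 M MOPS, pH 7.0. Yeast or mould inoculum at 2×10^3 CFU/ml was mixed 1:1 with DMSO-derived compound solutions (200 to 0.10 μg/ml before mixing) and incubated at 35 °C for 4 to 48 h. MIC was the concentration showing no growth.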

[2] = test system: Aspergillus niger A. 16404; conditions: 4 to 48 hours; for Minimal inhibitory concentration(MIC), A. niger A. 16404: RPMI-1640, 35° C., no growth observed
Summary of the method: as §1

[3] = test system: Cryptococcus neoformans B. 42419; conditions: 4 to 48 hours; for Minimal inhibitory concentration(MIC), Cry. neoformans B. 42419: RPMI-1640, 35° C., no growth observed
Summary of the method: as §1

Candida albicans C1-2 = conditions: 4 to 48 hours; for Minimal inhibitory concentration(MIC), C. albicans C1-2: RPMI-1640, 35° C., no growth observed
Summary of the method: as §1

[4] = test system: Candida tropicalis A. 13803; conditions: 4 to 48 hours; for Minimal inhibitory concentration(MIC), C. tropicalis A. 13803: RPMI-1640, 35° C., no growth observed
Summary of the method: as §1

[5] = test system: Aspergillus furnigatus B. 19119; conditions: 4 to 48 hours; for Minimal inhibitory concentration(MIC), A furnigatus B. 19119: RPMI-1640, 35° C., no growth observed
Summary of the method: as §1

[6] = test system: Trichophyton mentagrophytes B. 32663; conditions: 4 to 48 hours; for Minimal inhibitory concentration(MIC), T. mentagrophytes B. 32663: RPMI-1640, 35° C., no growth observed
Summary of the method: as §1

[7] = test system: Cryptococcus neoformans IFM. 40092; conditions: 4 to 48 hours; for Minimal inhibitory concentration(MIC), Cry. neoformans IFM. 40092: RPMI-1640, 35° C., no growth observed
Summary of the method: as §1

[8] = test system: Torulopsis glabrata B. 16205; conditions: 4 to 48 hours; for Minimal inhibitory concentration(MIC), T. glabrata B. 16205: RPMI-1640, 35° C., no growth observed
Summary of the method: as §1

[9] = test system: Cryptococcus neoformans A. 34144; conditions: 4 to 48 hours; for Minimal inhibitory concentration(MIC), Cry. neoformans A. 34144: RPMI-1640, 35° C., no growth observed
Summary of the method: as §1

Candida krusei K. 11655 = conditions: 4 to 48 hours; for Minimal inhibitory concentration(MIC), C. krusei K. 11655: RPMI-1640, 35° C., no growth observed
Summary of the method: as §1

[10] = test system: Candida albicans IFO. 1385; conditions: 4 to 48 hours; for Minimal inhibitory concentration(MIC), C. albicans IFO. 1385: RPMI-1640, 35° C., no growth observed
Summary of the method: as §1

[11] = test system: Candida parapsitosis A. 7330; conditions: 4 to 48 hours; for Minimal inhibitory concentration(MIC), C. parapsitosis A. 7330: RPMI-1640, 35° C., no growth observed
Summary of the method: as §1

[12] = test system: Trichophyton mentagrophytes A. 9129; conditions: 4 to 48 hours; for Minimal inhibitory concentration(MIC), T. mentagrophytes A. 9129: RPMI-1640, 35° C., no growth observed
Summary of the method: as §1

[13] = test system: Candida pseudotropicalis K. 11658; conditions: 4 to 48 hours; for Minimal inhibitory concentration(MIC), C. pseudotropicalis K. 11658: RPMI-1640, 35° C., no growth observed
Summary of the method: as §1

## FC(Oc1ccc(OCC2COC(Cn3ccnc3)(c3ccc(Cl)cc3Cl)O2)cc1)=C(c1cccc(Cl)c1)C(F)(F)F (mixture of isomers) [Ex. 101]
[1]
  Minimal inhibitory concentration(MIC), C. albicans A. 10231: 25.0 µg/mL
[2]
  Minimal inhibitory concentration(MIC), A. niger A. 16404: >100 µg/mL
[3]
  Minimal inhibitory concentration(MIC), Cry. neoformans B. 42419: 3.13 µg/mL
Candida albicans C1-2
  Minimal inhibitory concentration(MIC), C. albicans C1-2: 50.0 µg/mL
[4]
  Minimal inhibitory concentration(MIC), C. tropicalis A. 13803: >100 µg/mL
[5]
  Minimal inhibitory concentration(MIC), A furnigatus B. 19119: 50.0 µg/mL
[6]
  Minimal inhibitory concentration(MIC), T. mentagrophytes B. 32663: 12.5 µg/mL
[7]
  Minimal inhibitory concentration(MIC), Cry. neoformans IFM. 40092: 0.78 µg/mL
[8]
  Minimal inhibitory concentration(MIC), T. glabrata B. 16205: 25.0 µg/mL
[9]
  Minimal inhibitory concentration(MIC), Cry. neoformans A. 34144: 3.13 µg/mL
Candida krusei K. 11655
  Minimal inhibitory concentration(MIC), C. krusei K. 11655: >100 µg/mL
[10]
  Minimal inhibitory concentration(MIC), C. albicans IFO. 1385: 3.13 µg/mL
[11]
  Minimal inhibitory concentration(MIC), C. parapsitosis A. 7330: >100 µg/mL
[12]
  Minimal inhibitory concentration(MIC), T. mentagrophytes A. 9129: 25.0 µg/mL
[13]
  Minimal inhibitory concentration(MIC), C. pseudotropicalis K. 11658: >100 µg/mL

## Cc1cc(C)c(C=C(F)OCC2COC(Cn3ccnc3)(c3ccc(Cl)cc3Cl)O2)cc1C (stereo not drawn) [Ex. 7]
[1]; C. albicans A. 10231, RPMI-1640, 35° C.
  Minimal inhibitory concentration (MIC): 12.5 µg/mL (≈ 25.4 µM)
[2]; A. niger A. 16404, RPMI-1640, 35° C.
  Minimal inhibitory concentration (MIC): 12.5 µg/mL (≈ 25.4 µM)
[3]; Cry. neoformans B. 42419, RPMI-1640, 35° C.
  Minimal inhibitory concentration (MIC): 1.56 µg/mL (≈ 3.17 µM)
Candida albicans C1-2; C. albicans C1-2, RPMI-1640, 35° C.
  Minimal inhibitory concentration (MIC): 12.5 µg/mL (≈ 25.4 µM)
[4]; C. tropicalis A. 13803, RPMI-1640, 35° C.
  Minimal inhibitory concentration (MIC): 25.0 µg/mL (≈ 50.9 µM)
[5]; A furnigatus B. 19119, RPMI-1640, 35° C.
  Minimal inhibitory concentration (MIC): 6.25 µg/mL (≈ 12.7 µM)
[6]; T. mentagrophytes B. 32663, RPMI-1640, 35° C.
  Minimal inhibitory concentration (MIC): 1.56 µg/mL (≈ 3.17 µM)
[7]; Cry. neoformans IFM. 40092, RPMI-1640, 35° C.
  Minimal inhibitory concentration (MIC): 0.78 µg/mL (≈ 1.59 µM)
[8]; T. glabrata B. 16205, RPMI-1640, 35° C.
  Minimal inhibitory concentration (MIC): 6.25 µg/mL (≈ 12.7 µM)
[9]; Cry. neoformans A. 34144, RPMI-1640, 35° C.
  Minimal inhibitory concentration (MIC): 1.56 µg/mL (≈ 3.17 µM)
Candida krusei K. 11655; C. krusei K. 11655, RPMI-1640, 35° C.
  Minimal inhibitory concentration (MIC): 12.5 µg/mL (≈ 25.4 µM)
[10]; C. albicans IFO. 1385, RPMI-1640, 35° C.
  Minimal inhibitory concentration (MIC): 1.56 µg/mL (≈ 3.17 µM)
[11]; C. parapsitosis A. 7330, RPMI-1640, 35° C.
  Minimal inhibitory concentration (MIC): 12.5 µg/mL (≈ 25.4 µM)
[12]; T. mentagrophytes A. 9129, RPMI-1640, 35° C.
  Minimal inhibitory concentration (MIC): 6.25 µg/mL (≈ 12.7 µM)
[13]; C. pseudotropicalis K. 11658, RPMI-1640, 35° C.
  Minimal inhibitory concentration (MIC): 12.5 µg/mL (≈ 25.4 µM)

## COc1ccc(C(=C(F)Oc2ccc(OCC3COC(Cn4cncn4)(c4ccc(Cl)cc4Cl)O3)cc2)C(F)(F)F)cc1 (mixture of isomers) [Ex. 121]
[1]
  Minimal inhibitory concentration(MIC), C. albicans A. 10231: 100 µg/mL
[2]
  Minimal inhibitory concentration(MIC), A. niger A. 16404: >100 µg/mL
[3]
  Minimal inhibitory concentration(MIC), Cry. neoformans B. 42419: 1.56 µg/mL
Candida albicans C1-2
  Minimal inhibitory concentration(MIC), C. albicans C1-2: 100 µg/mL
[4]
  Minimal inhibitory concentration(MIC), C. tropicalis A. 13803: >100 µg/mL
[5]
  Minimal inhibitory concentration(MIC), A furnigatus B. 19119: >100 µg/mL
[6]
  Minimal inhibitory concentration(MIC), T. mentagrophytes B. 32663: 3.13 µg/mL
[7]
  Minimal inhibitory concentration(MIC), Cry. neoformans IFM. 40092: 0.20 µg/mL
[8]
  Minimal inhibitory concentration(MIC), T. glabrata B. 16205: 50.0 µg/mL
[9]
  Minimal inhibitory concentration(MIC), Cry. neoformans A. 34144: 1.56 µg/mL
Candida krusei K. 11655
  Minimal inhibitory concentration(MIC), C. krusei K. 11655: 100 µg/mL
[10]
  Minimal inhibitory concentration(MIC), C. albicans IFO. 1385: 3.13 µg/mL
[11]
  Minimal inhibitory concentration(MIC), C. parapsitosis A. 7330: 100 µg/mL
[12]
  Minimal inhibitory concentration(MIC), T. mentagrophytes A. 9129: 6.25 µg/mL
[13]
  Minimal inhibitory concentration(MIC), C. pseudotropicalis K. 11658: 25.0 µg/mL
